Ten molecules from patent EP0819689A1, “5-substituted (2H) chromenes” (Byk Gulden Lomberg Chemische Fabrik GmbH, priority 1996, dated 1998) can be followed below.

This test concerns PDE IV. The test can be described thus: Inhibition of PDE IV activity (method of Bauer and Schwabe, adapted to microtitre plates). It counts as biochemical. Conditions: Hemmung der PDE IV-Aktivität. From the text: Der Aktivitätstest wurde nach der Methode von Bauer und Schwabe durchgeführt, die auf Mikrotiterplatten adaptiert wurde (Naunyn-Schmiedeberg's Arch. Pharmacol. 1980, 311, 193-198). Hierbei erfolgt im ersten Schritt die PDE-Reaktion. In einem zweiten Schritt wird das entstandene 5'-Nukleotid durch eine 5'-Nukleotidase des Schlangengiftes von ophiophagus hannah (King Cobra) zum ungeladenen Nukleosid gespalten. Im dritten Schritt wird das Nukleosid auf Ionenaustauschsäulen vom verbliebenen geladenen Substrat getrennt. Die Säulen werden mit 2 ml 30 mM Ammoniumformiat (pH 6,0) direkt in Minivials eluiert, in die noch 2 ml Szintillatorflüssigkeit zur Zählung gegeben wird.
Die für die erfindungsgemäßen Verbindungen ermittelten Hemmwerte ergeben sich aus der folgenden Tabelle A, in der die Nummern der Verbindungen den Nummern der Beispiele entsprechen. Tabelle A
Turning to `COc1ccc(C(O)Cc2ccncc2)c2c1OC1(C=C2)CCCC1` (racemic) [Verbindung 1, (±)-Spiro{5-[1-Hydroxy-2-(pyrid-4-yl)ethyl]-8-methoxy-[2H]chromen-2,1'-Cyclopentan}], the “PDE 4 -logIC50” value was 5,88.

Consider `COc1ccc(CC(C#N)c2ccncc2)c2c1OC(C)(C)CC2` (racemic) [Verbindung 9, (±)-5-[2-Cyano-2-(pyrid-4-yl)ethyl]-8-methoxy-2,2-dimethylchroman], for which the “PDE 4 -logIC50” value is listed as 7,01. In the case of `COc1ccc(/C=C(\C#N)c2cccnc2)c2c1OC(C)(C)C=C2` [Verbindung 6, (Z)-5-[2-Cyano-2-(pyrid-3-yl)ethenyl]-8-methoxy-2,2-dimethyl-[2H]chromen] it was 6,36; in that of `COc1ccc(/C=C(\C#N)c2ccncc2)c2c1OC1(C=C2)CCCC1` [Verbindung 4, (Z)-Spiro{5-[2-Cyano-2-(pyrid-4-yl)ethenyl]-8-methoxy-[2H]chromen-2.1'-Cyclopentan}], 6,12; in that of `COc1ccc(CC(C#N)c2ccccn2)c2c1OC(C)(C)CC2` (racemic) [Verbindung 10, (±)-5-[2-Cyano-2-(pyrid-2-yl)ethyl]-8-methoxy-2,2-dimethylchroman], 6,76. To `COc1ccc(/C=C/c2ccncc2)c2c1OC1(C=C2)CCCC1` [Verbindung 2, (E)-Spiro{5-[2-(pyrid-4-yl)ethenyl]-8-methoxy-[2H]chromen-2,1'-Cyclopentan}] belongs 7,10; to `COc1ccc(/C=C(\C#N)c2ccncc2)c2c1OC(C)(C)C=C2` [Verbindung 5, (Z)-5-[2-Cyano-2-(pyrid-4-yl)ethenyl]-8-methoxy-2,2-dimethyl-[2H]chromen], 6,73.

Take `COc1ccc(/C=C(\C#N)c2ccccn2)c2c1OC(C)(C)C=C2` [Verbindung 7, (Z)-5-[2-Cyano-2-(pyrid-2-yl)ethenyl]-8-methoxy-2,2-dimethyl-[2H]chromen]: the “PDE 4 -logIC50” value is recorded as 5,95. Consider `COc1ccc(CC(C#N)c2ccncc2)c2c1OC1(CCCC1)CC2` (racemic) [Verbindung 8, (±)-Spiro{5-[2-Cyano-2-(pyrid-4-yl)ethyl]-8-methoxychroman}], for which the “PDE 4 -logIC50” value is 6,95. `COc1ccc(CCc2ccncc2)c2c1OC1(CCCC1)CC2` [Verbindung 3, Spiro{5-[2-(pyrid-4-yl)ethyl]-8-methoxychroman-2.1'-Cyclopentan}]: the “PDE 4 -logIC50” value is 7,59.
